Values quoted from earlier work in patent US20050119262A1, “Method for preventing or treating an optic neuropathy with a cox-2 inhibitor and an intraocular pressure reducing agent” (Pharmacia Corporation, priority 2003, published 2005).

Settings: patients with ocular hypertension and glaucoma

CC(=O)Oc1ccccc1C(=O)O [acetylsalicylic acid]
effect on IOP: no affect on IOP
